Values belong to the compound of their own block, whether it stands above or below them.
Columns and labels:
[1] = Antiproliferative activity against BAEC cells assessed as reduction in cell viability after 3 days by coulter counting method; assay type: functional, cell-based; conditions: Bos taurus, 72 h
L1210 = assay: Antiproliferative activity against mouse L1210 cells assessed as reduction in cell viability after 3 days by coulter counting method; assay type: functional, cell-based; conditions: L1210, 72 h
MCF7 [2] = assay: Potency index, ratio of Sorafenib IC50 to test compound IC50 for antiproliferative activity against human MCF7 cells; assay type: functional
HT-29 [3] = assay: Potency index, ratio of Sorafenib IC50 to test compound IC50 for antiproliferative activity against human HT-29 cells; assay type: functional
HT-29 [4] = assay: Antiproliferative activity against human HT-29 cells assessed as reduction in cell viability after 72 hrs by MTT assay; assay type: functional, cell-based; conditions: HT-29, 72 h
MCF7 [5] = assay: Antiproliferative activity against human MCF7 cells assessed as reduction in cell viability after 72 hrs by MTT assay; assay type: functional, cell-based; conditions: MCF7, 72 h
MKN-28 = assay: Antiproliferative activity against human MKN28 cells by MTT assay; assay type: functional, cell-based
MKN-45 = assay: Antiproliferative activity against human MKN45 cells by MTT assay; assay type: functional, cell-based
MGC-803 = assay: Antiproliferative activity against human MGC803 cells by MTT assay; assay type: functional, cell-based
A549 [6] = assay: Antiproliferative activity against human A549 cells assessed as reduction in cell viability after 72 hrs by MTT assay; assay type: functional, cell-based; conditions: A549, 72 h
HepG2 [7] = assay: Antiproliferative activity against human HepG2 cells assessed as reduction in cell viability after 72 hrs by MTT assay; assay type: functional, cell-based; conditions: HepG2, 72 h
U-251 = assay: Antiproliferative activity against human U251 cells assessed as reduction in cell viability after 72 hrs by MTT assay; assay type: functional, cell-based; conditions: U-251, 72 h
HCT-116 [8] = assay: Antiproliferative activity against human HCT116 cells assessed as reduction in cell viability after 72 hrs by MTT assay; assay type: functional, cell-based; conditions: HCT-116, 72 h
A549/TR = assay: Antiproliferative activity against human A549/TR cells assessed as reduction in cell viability after 72 hrs by MTT assay; assay type: functional, cell-based
A549/CDDP = assay: Antiproliferative activity against human A549/CDDP cells assessed as reduction in cell viability after 72 hrs by MTT assay; assay type: functional, cell-based
HCT-116 [9] = assay: Antiproliferative activity against human HCT116 cells assessed as reduction in cell viability after 24 hrs by MTT assay; assay type: functional, cell-based; conditions: HCT-116, 24 h
Erythrocyte = assay: Cytotoxicity against human RBC cells assessed as reduction in cell viability after 24 hrs by MTT assay; assay type: cell-based
[10] = Cytotoxicity against human HEK cells assessed as reduction in cell viability after 24 hrs by MTT assay; assay type: cell-based; conditions: HEK293, 24 h
MCF7 [11] = assay: Antiproliferative activity against human MCF7 cells assessed as reduction in cell viability after 24 hrs by MTT assay; assay type: functional, cell-based; conditions: MCF7, 24 h
PBMC = assay: Cytotoxicity against human PBMC cells assessed as reduction in cell viability after 24 hrs by MTT assay; assay type: cell-based
PC-3 [12] = assay: Antiproliferative activity against human PC3 cells assessed as reduction in cell viability after 24 hrs by MTT assay; assay type: functional, cell-based; conditions: PC-3, 24 h
HepG2 [13] = assay: Antiproliferative activity against human HepG2 cells assessed as reduction in cell viability after 24 hrs by MTT assay; assay type: functional, cell-based; conditions: HepG2, 24 h
[14] = Antiproliferative activity against human MiaPaCa cells by SRB assay; assay type: functional; conditions: MIA PaCa-2
IMR-32 = assay: Antiproliferative activity against human IMR32 cells by SRB assay; assay type: functional
MDA-MB-231 [15] = assay: Antiproliferative activity against human MDA-MB-231 cells by SRB assay; assay type: functional
DU-145 = assay: Antiproliferative activity against human DU145 cells assessed as reduction in cell viability after 48 hrs by MTT assay; assay type: functional, cell-based; conditions: DU-145, 48 h
HeLa [16] = assay: Antiproliferative activity against human HeLa cells assessed as reduction in cell viability after 48 hrs by MTT assay; assay type: functional, cell-based
SK-OV-3 = assay: Antiproliferative activity against human SKOV3 cells assessed as reduction in cell viability after 48 hrs by MTT assay; assay type: functional, cell-based; conditions: SK-OV-3, 48 h
PC-3 [17] = assay: cells; assay type: functional, cell-based; conditions: Homo sapiens, PC-3, 48 h
Description: Antiproliferative activity against human PC3 cells assessed as reduction in cell viability after 48 hrs by MTT assay

HT-29 [18] = assay: Antiproliferative activity against human HT-29 cells assessed as reduction in cell viability after 48 hrs by MTT assay; assay type: functional, cell-based; conditions: HT-29, 48 h
HGC-27 = assay: Antiproliferative activity against human HGC27 cells assessed as reduction in cell viability after 48 hrs by MTT assay; assay type: functional, cell-based; conditions: HGC-27, 48 h
HeLa [19] = assay: Antiproliferative activity against human HeLa cells assessed as reduction in cell viability after 72 hrs by MTT assay; assay type: functional, cell-based
T47D = assay: Antiproliferative activity against human T47D cells assessed as reduction in cell viability after 72 hrs by MTT assay; assay type: functional, cell-based
A-431 = assay: Antiproliferative activity against human A431 cells assessed as reduction in cell viability after 72 hrs by MTT assay; assay type: functional, cell-based; conditions: A-431, 72 h
[20] = Antiproliferative activity against human […] cells assessed as reduction in cell viability after 72 hrs by MTT assay; assay type: functional, cell-based
MDA-MB-231 [21] = assay: Antiproliferative activity against human MDA-MB-231 cells assessed as reduction in cell viability after 72 hrs by MTT assay; assay type: functional, cell-based; conditions: MDA-MB-231, 72 h, read-out: IC50
A2780 = assay: Antiproliferative activity against human A2780 cells assessed as reduction in cell viability after 72 hrs by MTT assay; assay type: functional, cell-based; conditions: A2780, 72 h
K562 = assay: Antiproliferative activity against human K562 cells assessed as reduction in cell viability after 24 hrs by MTT assay; assay type: functional, cell-based; conditions: K562, 24 h
K562-Lucena 1 = assay: Antiproliferative activity against human K562-Lucena 1 cells assessed as reduction in cell viability after 24 hrs by MTT assay; assay type: functional, cell-based; conditions: K562-Lucena 1, 24 h
HL-60 = assay: Antiproliferative activity against human HL60 cells assessed as reduction in cell viability after 24 hrs by MTT assay; assay type: functional, cell-based; conditions: HL-60, 24 h
A549 [22] = assay: cells; assay type: functional, cell-based; conditions: Homo sapiens
Description: Antiproliferative activity against human A549 cells by MTT assay

NCI-H460 = assay: Antiproliferative activity against human H460 cells by MTT assay; assay type: functional, cell-based
[23] = Antiproliferative activity against human GBM2 cells assessed as reduction in cell viability after 72 hrs by MTT assay; assay type: functional, cell-based; conditions: GBM2, 72 h
[24] = Antiproliferative activity against human GBM95 cells assessed as reduction in cell viability after 72 hrs by MTT assay; assay type: functional, cell-based

SMILES: COc1ccc(-n2cc(CN3c4ccccc4Sc4ccccc43)nn2)c([N+](=O)[O-])c1
IC50 (MKN-28): 1.2 to 3.5 µM | IC50 (MKN-45): 1.2 to 3.5 µM | IC50 (MGC-803): 1.2 to 3.5 µM

SMILES: CC(C)=CCC[C@]1(C)C=Cc2c(O)c3c(c(CC=C(C)C)c2O1)O[C@]12C(=C[C@@H]4C[C@H]1C(C)(C)O[C@@]2(C/C=C(/C)C(=O)O)C4=O)C3=O [GAMBOGIC ACID]
IC50 (A549 [6]): 0.29 to 4.67 µM | IC50 (HepG2 [7]): 0.29 to 4.67 µM | IC50 (U-251): 0.29 to 4.67 µM | IC50 (HCT-116 [8]): 0.29 to 4.67 µM | IC50 (A549/TR): 0.29 to 4.67 µM | IC50 (A549/CDDP): 0.29 to 4.67 µM

SMILES: C#Cc1cccc(Nc2ncnc3cc(OCCOC)c(OCCOC)cc23)c1 [ERLOTINIB]
IC50 (HCT-116 [9]): 11.6 to 26.9 µM | IC50 (Erythrocyte): 16.2 µM | IC50 [10]: 29.5 µM | IC50 (MCF7 [11]): 11.6 to 26.9 µM | IC50 (PBMC): 20.5 µM | IC50 (PC-3 [12]): 11.6 to 26.9 µM | IC50 (HepG2 [13]): 11.6 to 26.9 µM

SMILES: O=C(NCc1cn(-c2ccc(F)cc2)nn1)C(=O)c1c[nH]c2ccccc12
IC50 (DU-145): 8.69 µM | IC50 (HeLa [16]): > 100 µM | IC50 (SK-OV-3): > 100 µM

SMILES: CC(C)(C)c1ccc(-c2cn([C@H]3C[C@H]4[C@@H]5CCc6cc(OCc7ccccc7)ccc6[C@H]5CC[C@@]4(C)[C@@H]3O)nn2)cc1
IC50 (HeLa [19]): 2.4 to 8.3 µM | IC50 (MCF7 [5]): 2.4 to 8.3 µM | IC50 (T47D): 2.4 to 8.3 µM | IC50 (A-431): 2.4 to 8.3 µM | IC50 [20]: 2.4 to 8.3 µM | IC50 (MDA-MB-231 [21]): 2.4 to 8.3 µM | IC50 (A2780): 2.4 to 8.3 µM

SMILES: Cn1nnc2c(C(N)=O)ncn2c1=O [TEMOZOLOMIDE]
IC50 [23]: 1130 µM | IC50 [24]: 625 µM

Second part, led by results:

IC50 (L1210): 40 to 82 µM
SMILES: CS(=O)(=O)c1ccc(-c2cn(-c3ccc(Cl)c(-c4ccccn4)c3)nn2)c(Cl)c1
IC50 [1]: 40 to 82 µM

IC50 (HT-29 [4]): 0.2 to 0.84 µM | IC50 (MCF7 [5]): 0.2 to 0.84 µM
SMILES: CNC(=O)c1cc(Oc2ccc(-n3cc(-c4cccc(F)c4)nn3)cc2)ccn1
Ratio IC50 (MCF7 [2]): 6.2 - 131.2 | Ratio IC50 (HT-29 [3]): 6.2 - 131.2

GI50 (MDA-MB-231 [15]): 0.11 to 1 µM
SMILES: N#Cc1ccccc1Cn1cc(CNc2ccc3oc(-c4ccccc4)cc(=O)c3c2)nn1
GI50 [14]: 0.11 to 1 µM | GI50 (IMR-32): 0.11 to 1 µM

IC50 (HT-29 [4]): 0.2 to 0.84 µM | IC50 (MCF7 [5]): 0.2 to 0.84 µM
SMILES: CNC(=O)c1cc(Oc2ccc(-n3cc(-c4cccs4)nn3)cc2)ccn1
Ratio IC50 (MCF7 [2]): 6.2 - 131.2 | Ratio IC50 (HT-29 [3]): 6.2 - 131.2

IC50 (PC-3 [17]): 3.67 to 26.5 µM | IC50 (MCF7 [5]): 3.67 to 26.5 µM | IC50 (HT-29 [18]): 3.67 to 26.5 µM
SMILES: COc1cc(-c2nc(Cn3cc(CN4C(=O)c5ccc(C)cc5C4=O)nn3)cc3c2[nH]c2ccccc23)cc(OC)c1OC
IC50 (HGC-27): 3.67 to 26.5 µM

IC50 (K562): 14.3 to 99.2 µM | IC50 (K562-Lucena 1): 14.3 to 99.2 µM | IC50 (HL-60): 14.3 to 99.2 µM
SMILES: O=C1C=C(n2cc(-c3ccccc3)nn2)C(=O)c2ccccc21
IC50 (PBMC): 14.3 to 99.2 µM

IC50 (A549 [22]): 10 µM | IC50 (NCI-H460): 8 µM
SMILES: COc1ccc2c(c1)OCC(=O)N2Cc1cn(Cc2ccccc2)nn1
